{"source": "patent US20130225611A1", "about": "“Compositions and Methods for Reducing Cancer Cell Proliferation and Modulating Importin-Beta Function” (THE REGENTS OF THE UNIVERSITY OF CALIFORNIA, priority 2011, published 2013)", "key": {"[1]": {"tested_on": "importin-β/RanGTP-mediated nuclear import", "experiment": "nuclear import of GFP-NLS reporter in permeabilized HeLa cells", "format": "cell-based, human", "conditions": "100 μM importazole, permeabilized HeLa cells plus Xenopus egg extract", "procedure": "Because importazole binds importin-β and affects the RanGTP/importin-β interaction, importazole was tested to determine whether it inhibits the nuclear import of any protein bearing a classical nuclear localization signal (NLS). This was first tested using permeabilized HeLa cells, in which nuclear import of a GFP-NLS reporter can be reconstituted in vitro. Digitonin-permeabilized cells were incubated with a GFP-NLS reporter plus Xenopus laevis egg extracts as a source of soluble transport factors including Ran, importin-α, and importin-β.\nHeLa cells were permeabilized and treated with an import reporter and cytosol from Xenopus laevis […] as described by Adam et al. (1990) J. Cell Biol. 111:807-816."}, "[2]": {"target": "T1, interaction between RanGTP and importin-β (Homo sapiens, UniProt Q14974)", "T1 construct": "made in house; host or cells: BL21 cells (E. coli)", "experiment": "CFP-Ran/YFP-importin-β FRET assay", "format": "binding", "conditions": "spectrofluorimeter retest", "procedure": "A reverse chemical genetic high-throughput screen (HTS) was performed to identify compounds that affect the interaction between RanGTP and importin-β using a fluorescence resonance energy transfer (FRET)-based assay with cyan fluorescent protein (CFP)-tagged Ran and yellow fluorescent protein (YFP)-tagged importin-β. These proteins bind one another only when CFP-Ran is guanosine triphosphate (GTP)-bound, which can be detected by changes in FRET (FIG. 1A and FIG. 1B). When CFP-Ran is incubated with RCC1, GTP, and YFP-importin-β, and the mixture is excited with 435 nm fluorescence in a fluorometer, a strong FRET signal is generated, as indicated by a decrease in the fluorescence intensity at 475 nm (the emission wavelength of CFP) and an increase in the fluorescence intensity at 525 nm (the emission wavelength of YFP). No FRET signal is generated if GDP is substituted for GTP, and nucleotide-specific interaction could also be observed biochemically, as S-tagged YFP-importin-β pulls CFP-Ran out of solution only in the presence of GTP. […]\nThe following reaction buffer was used for all FRET assays, including the high-throughput screen: 1× phosphate buffered saline (PBS), 5% glycerol, 2 mM MgCl2, 1 mM dithiothreitol (DTT), 0.01% NP-40. […] The reaction was excited using a Fluorolog 3 spectrofluorometer with 435 nm fluorescence and the emission was read between 460 nm and 550 nm. […]"}, "microtubule asters": {"tested_on": "microtubule asters", "experiment": "DMSO-induced aster assembly in Xenopus egg extracts", "parameters": "species or system Xenopus laevis", "conditions": "5% DMSO", "procedure": "Xenopus laevis egg extracts were prepared as described by Hannak et al. (2006) Nat. Protoc. 1:2305-2314. For in vitro spindle assembly, Xenopus laevis sperm DNA was added to egg extracts supplemented with rhodamine-labeled tubulin. Asters were formed by addition of 5% DMSO. DNA was stained with Hoechst dye. The formation of microtubule-based structures was assessed using epifluorescence microscopy after a 30-minute room temperature incubation. In vitro microtubule polymerization and pelleting assays were performed by incubating 25 μM bovine tubulin, 1 mM GTP, and 5% DMSO in BRB80 buffer (80 mM PIPES, 1 mM MgCl2, 1 mM EGTA, pH 6.8) at 37° C. for 30 minutes. Polymerized microtubules were pelleted through a sucrose cushion, resuspended, and analyzed by SDS PAGE."}}}
{"compound": "CC(Nc1nc(N2CCCC2)nc2ccccc12)c1ccccc1", "note": "(stereo not drawn) [importazole, (1-phenyl-ethyl)-(2-pyrrolidin-1-yl-quinazolin-4-yl)-amine]", "values": [{"measurement": "nuclear import of GFP-NLS reporter", "setting": "[1]", "result": "blocked import"}, {"measurement": "effect on FRET signal generated by CFP-Ran and YFP-importin-β", "setting": "[2]", "result": "reproducibly disrupted the FRET signal"}, {"measurement": "formation of microtubule asters induced by DMSO in the extract", "setting": "microtubule asters", "result": "did not impair the formation of microtubule asters"}]}
